Measured values from PMC6445123 (Scientific Reports, 2019).
Changes are numbered by the printed parent chain. Several values for one entry are separate records, joined by “and”; a condition that tells them apart may be missing. Equal values may be shown once.

Key:
Casp6-WT-LS-SS = target: T1, Casp6-WT-LS-SS (Homo sapiens, UniProt P55212); test: C13 dose-response and global-fit kinetics on Casp6-WT-LS-SS; format: biochemical
T1 construct: obtained by co-expression and purification of LS and SS subunits of WT, L200A or K284A Casp6 from E. coli; His (C); made in house; host or cells: E. coli BL21(DE3)pLysS
T1 sequence (P55212 24-179 limits assumed): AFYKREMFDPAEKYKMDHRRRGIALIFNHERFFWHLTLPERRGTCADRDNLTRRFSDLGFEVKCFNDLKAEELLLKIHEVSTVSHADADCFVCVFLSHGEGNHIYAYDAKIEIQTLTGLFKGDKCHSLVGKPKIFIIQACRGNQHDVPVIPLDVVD
T1 sequence (P55212 194-293 limits assumed): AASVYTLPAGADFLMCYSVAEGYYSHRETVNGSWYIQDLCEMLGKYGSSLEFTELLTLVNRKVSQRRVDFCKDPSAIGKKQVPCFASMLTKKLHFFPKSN
Excerpt: Figure 4 Compounds S10G and C13 inhibit Casp6 through a noncompetitive mode of inhibition. (a) Michaelis-Menten kinetic plots of Casp6 enzymatic activity in presence of 1% DMSO or increasing doses S10G (top) and C13 (bottom). Data points represent mean ± SD of three independent experiments. (b) Lineweaver-Burk plots of Casp6 inhibition with S10G (top) and C13 (bottom). Red circle indicates the point where lines converge. (c) The relationship between the slopes of lines in Lineweaver-Burk plot analyses in panel (b) and inhibitor concentration. (d) Plots of IC50 values for S10G (top) and C13 (bottom) with varying concentrations of Ac-VEID-AFC substrate. Data points represent mean ± SD from three independent experiments for each substrate concentration. (e) Binding model of C13 into CASP6 putative allosteric site, derived from molecular docking. Left: C13 (green sticks) occupies the putative allosteric site (white surface and lines; Ala-mutated residues L200 and K284 shown as purple sticks). Right: predicted interactions with Casp6 allosteric pocket residues (pink balls polar, circled blue or red for basic and acidic, respectively. Green balls = hydrophobic. Dotted-arrow: blue and green for backbone and sidechain hydrogen-bond interactions, respectively. Blue shade = solvent exposed area). […] Data points on the graph represent the mean ± SD, and calculated Ki values represent mean ± standard error (SE) from three independent experiments. […]
(§1) Compounds, S10G (2.5 µM, 4.2 µM, 10 µM), and C13 (5 µM, 14 µM, 50 µM), were added to 20 nM active site titrated Casp6 and enzyme activity was measured with eight different Ac-VEID-AFC substrate concentrations (5.0 μM–200 μM) using fluorescence-based Casp6 activity assay as above. The apparent KM and Vmax values were determined through nonlinear regression analysis of Michaelis-Menten plots (v vs. [S]) using GraphPad Prism 5. The inhibition mode was determined from the pattern of converging Lineweaver-Burk plots (1/v vs. 1/[S])[54]. […]

Casp6-L200A-LS-SS = target: T2, Casp6-L200A-LS-SS (Homo sapiens, UniProt P55212, L200A); test: C13 dose-response and global-fit kinetics on Casp6-L200A-LS-SS; format: biochemical
T2 construct: obtained by co-expression and purification of LS and SS subunits of WT, L200A or K284A Casp6 from E. coli; His (C); made in house; host or cells: E. coli BL21(DE3)pLysS
T2 sequence (P55212 24-179 limits assumed): T1 sequence (P55212 24-179 limits assumed)
T2 sequence (P55212 194-293 L200A limits assumed): T1 sequence (P55212 194-293 limits assumed) with L7A
Excerpt: Figure 4 Compounds S10G and C13 inhibit Casp6 through a noncompetitive mode of inhibition. (a) Michaelis-Menten kinetic plots of Casp6 enzymatic activity in presence of 1% DMSO or increasing doses S10G (top) and C13 (bottom). Data points represent mean ± SD of three independent experiments. (b) Lineweaver-Burk plots of Casp6 inhibition with S10G (top) and C13 (bottom). Red circle indicates the point where lines converge. (c) The relationship between the slopes of lines in Lineweaver-Burk plot analyses in panel (b) and inhibitor concentration. (d) Plots of IC50 values for S10G (top) and C13 (bottom) with varying concentrations of Ac-VEID-AFC substrate. Data points represent mean ± SD from three independent experiments for each substrate concentration. (e) Binding model of C13 into CASP6 putative allosteric site, derived from molecular docking. Left: C13 (green sticks) occupies the putative allosteric site (white surface and lines; Ala-mutated residues L200 and K284 shown as purple sticks). Right: predicted interactions with Casp6 allosteric pocket residues (pink balls polar, circled blue or red for basic and acidic, respectively. Green balls = hydrophobic. Dotted-arrow: blue and green for backbone and sidechain hydrogen-bond interactions, respectively. Blue shade = solvent exposed area). Dose-response curves of C13 for Casp6-WT and Casp6-K284A (f), and copurified LS and SS of Casp6-WT-LS-SS, Casp6-L200A-LS-SS, and Casp6-K284A-LS-SS (g). Data represent mean ± SD from at least three independent experiments. (h) Global fit of kinetics data to a noncompetitive (mixed) inhibition model for Casp6-WT-LS-SS (left panel, R^2 = 0.9635), Casp6-L200A-LS-SS (middle panel, R^2 = 0.9699), and Casp6-K284A-LS-SS (right panel, R^2 = 0.9794) in the presence of 0–50 µM C13. Data points on the graph represent the mean ± SD, and calculated Ki values represent mean ± standard error (SE) from three independent experiments.
To determine the importance of C13 interactions with L200 and K284 for C13 binding in the Casp6 allosteric pocket, we have generated Casp6-L200A and Casp6-K284A mutants and investigated inhibition with C13. […]
as §1

[1] = Ac-VEID-AFC hydrolysis, increasing substrate and C13 concentrations
[2] = global fit to noncompetitive (mixed) model, 0–50 µM C13, mean ± SE

COC(=O)c1cc(CNC(=O)C2Cc3ccccc3O2)cc(NC(=O)c2ccco2)c1 (stereo not shown) [Compound C13]
inhibition model (best global fit), Casp6-WT-LS-SS (Casp6-WT-LS-SS; [1]): noncompetitive (mixed) model inhibition | IC50 (Casp6-WT-LS-SS; copurified LS and SS, read-out: IC50 of C13 for Casp6-WT-LS-SS (Fig. 4g)): 31.8 ± 6.7 µM | Ki (Casp6-WT-LS-SS; [2]): 7.45 µM and 7.5 µM | fold lower IC50 for Casp6-L200A-LS-SS compared to Casp6-WT-LS-SS (Casp6-L200A-LS-SS): 1.4 fold | inhibition model (best global fit), Casp6-L200A-LS-SS (Casp6-L200A-LS-SS; [1]): noncompetitive (mixed) model inhibition | IC50 (Casp6-L200A-LS-SS; copurified LS and SS, read-out: IC50 of C13 for Casp6-L200A-LS-SS (Fig. 4g)): 23.4 ± 4.5 µM | Ki (Casp6-L200A-LS-SS; [2]): 6.82 µM and 6.8 µM
